Experimental data as given in BindingDB's records for doi:10.1021/jm060199b (Abbott Laboratories, 2006).

Target: Mitogen-activated protein kinase 8 (Homo sapiens, UniProt P45983)
Test: ATF-2 Phosphorylation Assay

Sequence of Mitogen-activated protein kinase 8 (P45983 whole entry): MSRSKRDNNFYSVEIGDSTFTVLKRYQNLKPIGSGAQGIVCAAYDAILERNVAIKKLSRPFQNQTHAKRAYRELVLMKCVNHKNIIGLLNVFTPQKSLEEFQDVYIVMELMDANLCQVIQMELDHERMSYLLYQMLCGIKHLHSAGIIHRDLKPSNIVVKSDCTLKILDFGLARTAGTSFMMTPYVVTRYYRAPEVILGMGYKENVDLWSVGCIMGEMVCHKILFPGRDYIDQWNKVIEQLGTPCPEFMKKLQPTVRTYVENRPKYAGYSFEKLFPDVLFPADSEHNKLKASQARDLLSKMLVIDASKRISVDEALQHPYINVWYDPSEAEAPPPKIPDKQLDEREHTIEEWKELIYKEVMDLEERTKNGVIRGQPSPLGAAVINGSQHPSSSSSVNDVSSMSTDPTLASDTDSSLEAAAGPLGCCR

IC50: > 10 µM
Compound: CCOc1cccc(NC(C)=O)n1 [N-(6-ethoxypyridin-2-yl)acetamide]
